These are literature values, as cited in paper PMC8762078, “An ALS-associated variant of the autophagy receptor SQSTM1/p62 reprograms binding selectivity toward the autophagy-related hATG8 proteins” (The Journal of Biological Chemistry, 2021).

“Also recorded” adds a separate entry of the source.

One series addresses GABARAPL2 (Homo sapiens, UniProt P60520). The following applies: ITC, compared with p62 WT-AIM. The text has this: A comparison may be drawn between the GABARAPL2/p62 AIM model produced here and the GABARAPL2/UBA5 AIM structure, the only published structure of an AIM-bound GABARAPL2 ([38]). Both involve the formation of an intermolecular β-sheet between the AIM and the β2 strand of GABARAPL2; however, the UBA5 AIM is atypical, and this produces a noncanonical interaction. The UBA5 AIM sequence ([…]) leads to the formation of a binding pocket not observed in the GABARAPL2/p62 AIM model proposed here or in any other hATG8/AIM interaction, due to the spacing of the key residues. The RMSD between these two ...
For orientation: In ITC the heat of successive injections is recorded.

The next series deals with motor neurone-like cells. The text has this: Autophagy is a central pathway for the removal of aggregated or damaged proteins and organelles and is critical to cellular homeostasis. Deregulation of autophagy is recognized as a pathogenic mechanism contributing to a range of neurodegenerative disorders, including amyotrophic lateral sclerosis (ALS) and frontotemporal lobar degeneration (FTLD) ([1], [2], [3], [4]). These conditions form a disease spectrum (ALS-FTLD) defined primarily by ubiquitinated inclusions of TAR DNA-binding protein-43 kDa in neurones ([5]). The link between ALS-FTLD and autophagy is reinforced by the identification o ... || A clear effect of the ALS-associated L341V mutation of p62/hATG8 interactions has been shown through these in vitro studies, though the impact remains relatively modest with individual interaction affinity alterations of up to approximately twofold. However, the interactions are best contextualized around the tendency for p62 to assemble into nanoscale filaments, which have been amenable to cryo-EM structural characterization (Fig. 6A) ([17], [52]). The N-terminal PB1 domain of p62 assembles into a helical protein scaffold with the flexible C-terminal chain, which carries the AIM and UBA domai ...

Chain of GABARAPL2 (P60520 whole entry): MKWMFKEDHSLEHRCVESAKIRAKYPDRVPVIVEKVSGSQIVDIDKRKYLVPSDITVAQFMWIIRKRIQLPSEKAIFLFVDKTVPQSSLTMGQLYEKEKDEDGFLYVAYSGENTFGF

Regarding WGIELV [UBA5 AIM], at GABARAPL2, the “thermodynamic profile of GABARAPL2/UBA5 interaction” value was “more enthalpically driven than the interaction with p62 reported here”.
As to “p62 L341V: ALS-associated L341V variant of the SQSTM1/p62 autophagy receptor”, the “p62 recruitment into autophagic vesicles” value in the series with motor neurone-like cells was “defect in p62 protein recruitment into autophagic vesicles; also recorded: reduction in p62 recruitment to acidic autophagic vesicles”.
